Each block holds one molecule with its values, some of them ahead of it.
Tests used:
[1] = target: T1, Dual specificity mitogen-activated protein kinase kinase 4 (Homo sapiens) (UniProt P45985); assay: Selectivity interaction (ActivX KiNativ screen (kinase selectivity in THP-1 cell lysates)) EUB0000639a MAP2K4; format: subcellular; details: lysate, at 0.01 µM
T1 sequence (whole entry): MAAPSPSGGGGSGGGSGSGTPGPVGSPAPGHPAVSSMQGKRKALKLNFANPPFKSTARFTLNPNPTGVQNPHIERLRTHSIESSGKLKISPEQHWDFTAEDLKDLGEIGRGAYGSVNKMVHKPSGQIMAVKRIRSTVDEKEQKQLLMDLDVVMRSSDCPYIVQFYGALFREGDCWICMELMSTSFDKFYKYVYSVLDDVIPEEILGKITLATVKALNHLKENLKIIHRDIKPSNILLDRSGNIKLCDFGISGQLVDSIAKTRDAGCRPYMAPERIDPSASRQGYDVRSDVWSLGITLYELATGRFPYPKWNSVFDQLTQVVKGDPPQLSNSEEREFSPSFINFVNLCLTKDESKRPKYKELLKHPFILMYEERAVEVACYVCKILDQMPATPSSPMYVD

[2] = target: Serine/threonine-protein kinase N1 (Homo sapiens, UniProt Q16512); assay: Selectivity interaction (ActivX KiNativ screen (kinase selectivity in THP-1 cell lysates)) EUB0000639a PKN1; format: subcellular; details: lysate, at 5 µM
Chain of Serine/threonine-protein kinase N1 (Q16512 2-942 limits assumed): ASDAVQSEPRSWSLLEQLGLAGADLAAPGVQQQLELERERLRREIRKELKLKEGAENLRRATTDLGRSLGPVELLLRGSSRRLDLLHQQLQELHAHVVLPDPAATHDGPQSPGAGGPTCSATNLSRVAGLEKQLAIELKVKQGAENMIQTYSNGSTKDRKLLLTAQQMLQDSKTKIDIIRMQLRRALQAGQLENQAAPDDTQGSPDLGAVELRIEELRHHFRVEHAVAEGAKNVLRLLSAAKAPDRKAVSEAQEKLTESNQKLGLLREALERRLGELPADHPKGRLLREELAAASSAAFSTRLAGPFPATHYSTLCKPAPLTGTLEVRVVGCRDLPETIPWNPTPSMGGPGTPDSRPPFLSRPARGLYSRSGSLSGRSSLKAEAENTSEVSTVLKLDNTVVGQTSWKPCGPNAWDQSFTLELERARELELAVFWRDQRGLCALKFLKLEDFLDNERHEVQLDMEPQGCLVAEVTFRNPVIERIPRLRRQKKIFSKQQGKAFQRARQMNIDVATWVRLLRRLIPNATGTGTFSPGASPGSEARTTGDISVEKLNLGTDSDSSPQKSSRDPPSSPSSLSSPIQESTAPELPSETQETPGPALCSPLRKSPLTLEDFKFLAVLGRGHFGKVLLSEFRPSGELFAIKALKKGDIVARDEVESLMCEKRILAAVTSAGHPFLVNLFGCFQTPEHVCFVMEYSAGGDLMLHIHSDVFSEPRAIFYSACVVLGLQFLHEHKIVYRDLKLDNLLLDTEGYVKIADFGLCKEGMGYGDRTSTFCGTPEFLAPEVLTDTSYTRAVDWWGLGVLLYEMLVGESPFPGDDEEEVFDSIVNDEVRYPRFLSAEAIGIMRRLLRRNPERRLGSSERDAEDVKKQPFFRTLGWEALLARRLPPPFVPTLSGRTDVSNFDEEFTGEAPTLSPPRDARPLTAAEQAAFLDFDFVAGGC

[3] = target: T2, Mitogen-activated protein kinase kinase kinase 6 (Homo sapiens) (UniProt O95382); assay: Selectivity interaction (ActivX KiNativ screen (kinase selectivity in THP-1 cell lysates)) EUB0000639a MAP3K6; format: subcellular; details: lysate, at 0.01 µM
T2 sequence (whole entry): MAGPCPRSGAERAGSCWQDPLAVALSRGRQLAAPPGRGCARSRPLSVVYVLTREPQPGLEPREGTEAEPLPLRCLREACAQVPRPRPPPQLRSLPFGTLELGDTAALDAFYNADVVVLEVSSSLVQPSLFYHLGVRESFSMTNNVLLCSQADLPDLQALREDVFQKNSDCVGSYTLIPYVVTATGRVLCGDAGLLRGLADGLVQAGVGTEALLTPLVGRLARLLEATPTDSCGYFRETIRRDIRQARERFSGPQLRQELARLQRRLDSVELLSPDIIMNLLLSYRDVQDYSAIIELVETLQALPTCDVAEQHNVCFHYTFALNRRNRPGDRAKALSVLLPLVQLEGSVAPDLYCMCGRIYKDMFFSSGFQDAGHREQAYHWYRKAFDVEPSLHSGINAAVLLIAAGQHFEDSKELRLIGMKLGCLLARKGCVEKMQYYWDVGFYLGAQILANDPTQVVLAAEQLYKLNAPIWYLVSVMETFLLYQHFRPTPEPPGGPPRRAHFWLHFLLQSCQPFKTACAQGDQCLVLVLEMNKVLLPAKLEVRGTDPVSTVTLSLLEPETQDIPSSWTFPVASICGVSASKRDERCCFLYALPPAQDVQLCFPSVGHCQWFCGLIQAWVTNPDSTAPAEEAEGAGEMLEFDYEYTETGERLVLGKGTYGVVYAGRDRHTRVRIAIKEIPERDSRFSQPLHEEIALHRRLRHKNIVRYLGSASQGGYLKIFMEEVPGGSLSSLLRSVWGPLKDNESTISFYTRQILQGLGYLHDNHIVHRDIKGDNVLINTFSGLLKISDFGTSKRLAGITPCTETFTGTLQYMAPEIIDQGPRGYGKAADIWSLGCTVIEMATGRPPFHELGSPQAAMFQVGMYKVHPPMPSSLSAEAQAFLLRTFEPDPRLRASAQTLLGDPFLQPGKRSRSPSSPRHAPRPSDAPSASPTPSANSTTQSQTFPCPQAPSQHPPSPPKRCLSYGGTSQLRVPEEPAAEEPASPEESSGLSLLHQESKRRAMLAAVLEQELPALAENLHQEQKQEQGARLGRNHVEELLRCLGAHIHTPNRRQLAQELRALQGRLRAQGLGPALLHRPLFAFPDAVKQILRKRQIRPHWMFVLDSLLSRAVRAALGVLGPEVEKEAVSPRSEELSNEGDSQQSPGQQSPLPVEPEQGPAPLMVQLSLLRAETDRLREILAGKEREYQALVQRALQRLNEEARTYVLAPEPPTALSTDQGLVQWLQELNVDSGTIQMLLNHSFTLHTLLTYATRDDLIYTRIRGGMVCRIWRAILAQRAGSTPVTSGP

Misshapen-like kinase 1 = Misshapen-like kinase 1 (Homo sapiens, UniProt Q8N4C8); assay: Selectivity interaction (ProQinase) EUB0000171b MINK1
Chain of Misshapen-like kinase 1 (Q8N4C8 whole entry, looked up): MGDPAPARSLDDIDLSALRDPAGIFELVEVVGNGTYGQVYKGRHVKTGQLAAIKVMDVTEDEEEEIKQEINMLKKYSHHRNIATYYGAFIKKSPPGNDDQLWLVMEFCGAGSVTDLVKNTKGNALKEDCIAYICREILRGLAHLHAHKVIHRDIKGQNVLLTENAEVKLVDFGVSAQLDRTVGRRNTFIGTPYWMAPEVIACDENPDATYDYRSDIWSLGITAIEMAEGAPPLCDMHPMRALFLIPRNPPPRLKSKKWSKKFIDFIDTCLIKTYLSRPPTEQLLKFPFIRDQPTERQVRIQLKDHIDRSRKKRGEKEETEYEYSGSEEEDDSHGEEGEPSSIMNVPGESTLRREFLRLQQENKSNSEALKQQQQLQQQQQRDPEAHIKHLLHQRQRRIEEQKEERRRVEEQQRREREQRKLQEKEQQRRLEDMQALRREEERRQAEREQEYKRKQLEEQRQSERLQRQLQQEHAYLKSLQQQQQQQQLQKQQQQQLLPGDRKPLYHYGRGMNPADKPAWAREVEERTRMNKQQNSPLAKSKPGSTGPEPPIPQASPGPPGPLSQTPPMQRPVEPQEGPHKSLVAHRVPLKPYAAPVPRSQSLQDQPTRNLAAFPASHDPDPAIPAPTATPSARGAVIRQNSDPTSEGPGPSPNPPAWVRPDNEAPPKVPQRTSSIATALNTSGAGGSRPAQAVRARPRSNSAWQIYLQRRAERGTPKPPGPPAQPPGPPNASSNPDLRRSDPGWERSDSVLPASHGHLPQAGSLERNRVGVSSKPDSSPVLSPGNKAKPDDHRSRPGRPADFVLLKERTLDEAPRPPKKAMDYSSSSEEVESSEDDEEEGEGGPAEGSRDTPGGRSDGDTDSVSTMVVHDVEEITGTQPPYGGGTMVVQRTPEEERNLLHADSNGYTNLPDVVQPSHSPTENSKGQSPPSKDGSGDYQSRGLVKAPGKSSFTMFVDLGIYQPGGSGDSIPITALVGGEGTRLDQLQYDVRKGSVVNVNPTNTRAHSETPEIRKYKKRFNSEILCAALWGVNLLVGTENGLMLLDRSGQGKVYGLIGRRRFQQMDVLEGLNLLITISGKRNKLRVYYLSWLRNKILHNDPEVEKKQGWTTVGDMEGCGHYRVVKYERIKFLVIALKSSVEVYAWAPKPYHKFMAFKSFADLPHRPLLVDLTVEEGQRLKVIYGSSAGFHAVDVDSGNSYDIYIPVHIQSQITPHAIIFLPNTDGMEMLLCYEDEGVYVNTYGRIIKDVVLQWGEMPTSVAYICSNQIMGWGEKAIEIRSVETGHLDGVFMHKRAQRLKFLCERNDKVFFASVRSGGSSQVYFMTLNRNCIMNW

[4] = target: T3, Ephrin type-B receptor 4 (Homo sapiens) (UniProt P54760); assay: Selectivity interaction (KinomeScan (DiscoverX)) EUB0001049a EPHB4; details: at 1 µM
T3 sequence (whole entry): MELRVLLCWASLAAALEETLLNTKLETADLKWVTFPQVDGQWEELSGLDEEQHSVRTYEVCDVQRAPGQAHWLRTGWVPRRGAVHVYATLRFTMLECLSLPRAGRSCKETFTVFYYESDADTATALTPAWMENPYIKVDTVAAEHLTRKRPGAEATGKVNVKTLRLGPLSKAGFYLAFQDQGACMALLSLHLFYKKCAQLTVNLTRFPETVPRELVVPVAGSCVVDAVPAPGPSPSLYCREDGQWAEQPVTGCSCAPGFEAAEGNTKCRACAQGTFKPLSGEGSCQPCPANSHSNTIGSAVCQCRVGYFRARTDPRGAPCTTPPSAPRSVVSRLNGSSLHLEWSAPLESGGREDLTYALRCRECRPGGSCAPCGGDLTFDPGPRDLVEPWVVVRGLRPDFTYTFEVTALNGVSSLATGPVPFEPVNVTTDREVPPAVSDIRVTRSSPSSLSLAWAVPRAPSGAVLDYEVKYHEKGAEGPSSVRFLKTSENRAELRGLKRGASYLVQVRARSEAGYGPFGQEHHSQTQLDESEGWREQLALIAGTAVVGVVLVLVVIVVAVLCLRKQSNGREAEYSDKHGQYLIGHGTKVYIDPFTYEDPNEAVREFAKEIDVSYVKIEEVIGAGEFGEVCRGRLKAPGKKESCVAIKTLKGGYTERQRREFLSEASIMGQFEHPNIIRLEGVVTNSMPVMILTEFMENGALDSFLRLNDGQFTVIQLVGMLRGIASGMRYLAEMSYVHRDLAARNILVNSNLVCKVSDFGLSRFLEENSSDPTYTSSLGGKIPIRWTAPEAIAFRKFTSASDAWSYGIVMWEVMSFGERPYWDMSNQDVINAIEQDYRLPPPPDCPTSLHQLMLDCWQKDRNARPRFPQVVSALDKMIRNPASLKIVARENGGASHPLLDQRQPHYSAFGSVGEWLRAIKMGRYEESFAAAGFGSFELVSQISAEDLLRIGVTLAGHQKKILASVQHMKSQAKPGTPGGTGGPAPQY

[5] = target: Phosphatidylinositol 4-kinase beta (Homo sapiens, UniProt Q9UBF8); assay: Selectivity interaction (KinomeScan (DiscoverX)) EUB0000666a PI4KB; details: at 10 µM
Chain of Phosphatidylinositol 4-kinase beta (Q9UBF8 2-816 limits assumed): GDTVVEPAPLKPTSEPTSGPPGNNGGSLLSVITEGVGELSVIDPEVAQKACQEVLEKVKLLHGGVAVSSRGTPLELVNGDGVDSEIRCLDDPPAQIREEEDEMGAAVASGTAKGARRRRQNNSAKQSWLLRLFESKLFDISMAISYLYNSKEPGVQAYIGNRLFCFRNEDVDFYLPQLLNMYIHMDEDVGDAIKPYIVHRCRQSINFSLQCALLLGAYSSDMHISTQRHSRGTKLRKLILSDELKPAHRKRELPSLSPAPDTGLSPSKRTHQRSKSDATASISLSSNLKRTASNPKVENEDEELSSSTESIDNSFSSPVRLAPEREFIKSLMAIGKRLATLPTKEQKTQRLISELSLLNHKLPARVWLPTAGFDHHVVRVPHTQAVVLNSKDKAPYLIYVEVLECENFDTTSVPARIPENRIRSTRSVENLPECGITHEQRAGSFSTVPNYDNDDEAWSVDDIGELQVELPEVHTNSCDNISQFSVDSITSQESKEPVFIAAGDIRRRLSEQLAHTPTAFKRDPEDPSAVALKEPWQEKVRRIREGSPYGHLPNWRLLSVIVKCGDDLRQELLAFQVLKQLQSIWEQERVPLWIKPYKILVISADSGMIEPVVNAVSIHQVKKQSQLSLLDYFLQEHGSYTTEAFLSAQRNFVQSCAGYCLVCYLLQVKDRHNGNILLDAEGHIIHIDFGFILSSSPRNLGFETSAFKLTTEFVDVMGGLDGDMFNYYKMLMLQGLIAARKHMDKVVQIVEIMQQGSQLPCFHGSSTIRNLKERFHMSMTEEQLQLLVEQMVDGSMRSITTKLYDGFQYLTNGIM

[6] = target: Angiopoietin-1 receptor (Homo sapiens) (UniProt Q02763); assay: Selectivity interaction (KinomeScan (DiscoverX)) EUB0000092b TEK; details: at 10 µM
Chain of Angiopoietin-1 receptor (Homo sapiens) (Q02763 whole entry): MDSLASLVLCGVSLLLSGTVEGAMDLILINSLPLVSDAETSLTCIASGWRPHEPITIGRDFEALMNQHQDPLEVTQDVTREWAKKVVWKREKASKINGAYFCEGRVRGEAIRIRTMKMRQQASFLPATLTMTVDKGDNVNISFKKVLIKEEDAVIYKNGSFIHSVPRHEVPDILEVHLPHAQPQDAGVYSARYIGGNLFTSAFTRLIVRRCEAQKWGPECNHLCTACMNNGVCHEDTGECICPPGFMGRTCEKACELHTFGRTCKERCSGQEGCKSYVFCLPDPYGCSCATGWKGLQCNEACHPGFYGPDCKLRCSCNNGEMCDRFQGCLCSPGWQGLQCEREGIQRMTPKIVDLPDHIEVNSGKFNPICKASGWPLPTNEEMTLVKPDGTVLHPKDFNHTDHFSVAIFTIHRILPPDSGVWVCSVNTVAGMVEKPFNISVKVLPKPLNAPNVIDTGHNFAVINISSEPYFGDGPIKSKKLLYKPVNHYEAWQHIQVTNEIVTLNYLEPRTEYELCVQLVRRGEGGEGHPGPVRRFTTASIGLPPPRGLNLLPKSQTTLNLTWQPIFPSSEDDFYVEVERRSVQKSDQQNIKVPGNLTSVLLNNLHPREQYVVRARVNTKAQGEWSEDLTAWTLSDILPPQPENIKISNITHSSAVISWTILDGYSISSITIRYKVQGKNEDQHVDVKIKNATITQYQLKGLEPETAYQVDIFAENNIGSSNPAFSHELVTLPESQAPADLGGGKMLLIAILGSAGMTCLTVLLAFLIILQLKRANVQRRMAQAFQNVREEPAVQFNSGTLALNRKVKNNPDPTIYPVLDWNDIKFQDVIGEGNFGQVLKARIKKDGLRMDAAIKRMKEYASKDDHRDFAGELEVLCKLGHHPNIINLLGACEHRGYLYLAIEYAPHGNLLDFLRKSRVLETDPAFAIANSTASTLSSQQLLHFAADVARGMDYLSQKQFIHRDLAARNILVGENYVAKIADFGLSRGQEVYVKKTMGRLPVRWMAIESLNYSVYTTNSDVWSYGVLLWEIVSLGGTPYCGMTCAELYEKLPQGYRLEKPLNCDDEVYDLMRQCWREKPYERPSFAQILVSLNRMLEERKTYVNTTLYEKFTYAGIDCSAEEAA

- % of inhibition [1]: -5.8%
- % of inhibition [2]: 0.1%
- % of inhibition [3]: 3.1%
Structure (SMILES): CC[C@@H]1[C@H](F)C(=O)N[C@@H]1COc1nccc2cc(C(N)=O)c(OC)cc12 [ZIMLOVISERTIB]

- % of control (Misshapen-like kinase 1; at 1 µM): 75%
- % of control (Misshapen-like kinase 1; at 5 µM): 44%
Structure (SMILES): C=CC(=O)Nc1cccc(C(=O)Nc2ccc(Nc3cc(-c4[nH]c(SC)nc4C)ccn3)cc2)c1

Structure (SMILES): COc1cc(Nc2nc(C)cc(-c3cnn4nc(OC)ccc34)n2)cc(C(F)(F)F)c1
- % of control [4]: 94%

Structure (SMILES): O=C(NOC[C@H](O)CO)c1ccc(F)c(F)c1Nc1ccc(I)cc1F
- % of control [5]: 100%

Structure (SMILES): CCC(=O)N1CCN(c2ccc(-n3c(=O)ccc4cnc5ccc(-c6cnc7ccccc7c6)cc5c43)cc2C(F)(F)F)CC1
- % of control [6]: 19%
